Here are results for 28 compounds from patent US10730865B2, “Compounds for modulating aquaporins” (APOGLYX AB, priority 2016, dated 2020).

Chain of human aquaporin 9 (O43315 whole entry): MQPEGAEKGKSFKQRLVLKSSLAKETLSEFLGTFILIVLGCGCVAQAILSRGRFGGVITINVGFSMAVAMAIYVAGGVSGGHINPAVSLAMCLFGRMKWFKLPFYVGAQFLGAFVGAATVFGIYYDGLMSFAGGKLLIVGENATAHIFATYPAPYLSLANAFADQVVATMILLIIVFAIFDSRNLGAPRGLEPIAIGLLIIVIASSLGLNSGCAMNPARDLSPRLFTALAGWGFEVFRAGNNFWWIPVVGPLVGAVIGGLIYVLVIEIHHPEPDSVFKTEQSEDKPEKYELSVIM

The target in this assay is human aquaporin 9 (Homo sapiens (Human), UniProt O43315). The assay can be described thus: Calcein quenching fluostar assay (inhibition of human aquaporin 9). In kind it is cell-based. The note with it: Human AQP9 cell line; example compounds used as 1 mM stock solutions in DMSO. The method, then:
Calcein Quenching Fluostar Assay
A calcein quenching fluostar assay was performed in order to investigate the biological activity of the newly synthesized examples 1 to 57. This type of assay is disclosed in J. Biol. Chem., 2011, 286, 44319-44325 and Am. J. Physiol. Renal Physiol. (2010), 298, F224-230.
1) Two days prior to commencement of the assay, seed 10,000 cells/well of 96 well black clear bottom plate (Greiner Poly-lysin plate). A 1:1 mix of Dulbecco's Modified Eagle's Medium: Nutrient Mixture F-12 (DMEM: F12) was obtained from Gibco. Tetracycline stock of 5 mg/ml in 96% ethanol is used. Medium: DMEM/F12/10% Donor Bovine Serum, Human AQP9 cell line+1:270,000 tetracyclin, mouse AQP9 cell line+1:2,700,000 tetracycline.
2) Day of assay: Flick/slam off the medium and add 50 μl/well of loading solution: 5 ml DMEM/F12/10% Donor Bovine Serum, 25 μl Calcein AM—from freshly dissolved aliquot in 50 μl DMSO (VWR #734-1434), and 100 μl Probenecid.
3) Incubate the well for 90 minutes at 37° C.
4) Perform one wash with 75 μl wash buffer.
5) Add 75 μl of an example compound prepared in wash buffer per well.
Example compounds are prepared in 500 μl U bottom PP plates (NUNC). 2.7 μl Substance in DMSO are added to row A; 180 μl of wash buffer+1% DMSO are added to rows B—H. 90 μl from row A are transferred and mixed with all other wells (up to row G) to make a 3-fold dilution series.
6) Assay in FLUOstar Optima at 25° C. Settings buffer addition at 135 μl/seconds, add 75 μl/well, record time course for 30 seconds, add sucrose buffer 3.6 seconds into recording.
7) Normalization to initial in Excel.
8) Fit to “exponential decay” function in GraphPad Prism 5.0, then arrange half live shrinking values according to wells and fit dose-response curves.
For the compound `CCc1nnc(SCC(=O)Nc2nnc(-c3ccc(OC)cc3)s2)n1-c1ccccc1` [Example 1, 2-[(5-ethyl-4-phenyl-4H-1,2,4-triazol-3-yl)sulfanyl]-N-[5-(4-methoxyphenyl)-1,3,4-thiadiazol-2-yl]acetamide], the EC50 (as a rule, the concentration that produces a half-maximal response) was 173 nM.

`CCc1nnc(SCC(=O)Nc2nnc(-c3ccc(OC)cc3)s2)n1CC` [Example 2, 2-[(diethyl-4H-1,2,4-triazol-3-yl)sulfanyl]-N-[5-(4-methoxyphenyl)-1,3,4-thiadiazol-2-yl]acetamide]: the EC50 was 59 nM.

Take `CCn1c(Cc2ccccc2)nnc1SCC(=O)Nc1nnc(-c2ccc(OC)cc2)s1` [Example 3, 2-[(5-benzyl-4-ethyl-4H-1,2,4-triazol-3-yl)sulfanyl]-N-[5-(4-methoxyphenyl)-1,3,4-thiadiazol-2-yl]acetamide]: the EC50 is 195 nM and the pEC50 in the inhibition of human aquaporin 9 is 6.7.

`CCn1c(OCC(=O)Nc2nnc(-c3ccc(OC)cc3)s2)nnc1-c1ccc(F)cc1` [Example 4, 2-{[4-ethyl-5-(4-fluorophenyl)-4H-1,2,4-triazol-3-yl]oxy}-N-[5-(4-methoxyphenyl)-1,3,4-thiadiazol-2-yl]acetamide]: the EC50 is 175 nM.

Take `CCn1c(C)nnc1SCC(=O)Nc1nnc(-c2ccc(S(C)(=O)=O)cc2)s1` [Example 5, 2-[(4-ethyl-5-methyl-4H-1,2,4-triazol-3-yl)sulfanyl]-N-[5-(4-methanesulfonylphenyl)-1,3,4-thiadiazol-2-yl]acetamide]: the EC50 is 455 nM.

In the case of `CCn1c(SCC(=O)Nc2nnc(-c3ccc(S(C)(=O)=O)cc3)s2)nnc1C(C)C` [Example 6, 2-{[4-ethyl-5-(propan-2-yl)-4H-1,2,4-triazol-3-yl]sulfanyl}-N-[5-(4-methanesulfonylphenyl)-1,3,4-thiadiazol-2-yl]acetamide], the EC50 was 192 nM and the pEC50 in the inhibition of human aquaporin 9 is 6.7.

On to `CCn1c(SCC(=O)Nc2nnc(-c3ccc(S(C)(=O)=O)cc3)s2)nnc1C1CC1` [Example 7, 2-[(5-cyclopropyl-4-ethyl-4H-1,2,4-triazol-3-yl)sulfanyl]-N-[5-(4-methanesulfonylphenyl)-1,3,4-thiadiazol-2-yl]acetamide], for which the EC50 is 105 nM and the pEC50 in the inhibition of human aquaporin 9 is 7.

For `CCc1nnc(SCC(=O)Nc2nnc(-c3ccc(S(C)(=O)=O)cc3)s2)n1CC` [Example 8, 2-[(diethyl-4H-1,2,4-triazol-3-yl)sulfanyl]-N-[5-(4-methanesulfonylphenyl)-1,3,4-thiadiazol-2-yl]acetamide], the EC50 was 66 nM and the pEC50 in the inhibition of human aquaporin 9 is 7.2.

`CCn1c(SCC(=O)Nc2ccc(-c3ccc(OC)cc3)nn2)nnc1-c1ccc(F)cc1` [Example 9, 2-{[4-ethyl-5-(4-fluorophenyl)-4H-1,2,4-triazol-3-yl]sulfanyl}-N-[6-(4-methoxyphenyl)pyridazin-3-yl]acetamide]: the 50% effective concentration (EC50) is 87 nM.

For `CCc1nnc(SCC(=O)Nc2nnc(-c3ccc(OC)cc3)s2)n1C` [Example 10, 2-[(5-ethyl-4-methyl-4H-1,2,4-triazol-3-yl)sulfanyl]-N-[5-(4-methoxyphenyl)-1,3,4-thiadiazol-2-yl]acetamide], the EC50 is 101 nM and the pEC50 in the inhibition of human aquaporin 9 is 7.

Take `COc1ccc(-c2nnc(NC(=O)CSc3nnc(C)n3-c3ccccc3)s2)cc1` [Example 11, N-[5-(4-methoxyphenyl)-1,3,4-thiadiazol-2-yl]-2-[(5-methyl-4-phenyl-4H-1,2,4-triazol-3-yl)sulfanyl]acetamide]: the EC50 was 394 nM and the pEC50 in the inhibition of human aquaporin 9 is 6.4.

Turning to `CCc1nnc(SCC(=O)Nc2nnc(-c3ccc(SC)cc3)s2)n1CC` [Example 12], the EC50 was 57 nM.

For the compound `CCc1nnc(SCC(=O)Nc2nnc(-c3ccc(OCC(C)C)cc3)s2)n1CC` [Example 13, 2-[(diethyl-4H-1,2,4-triazol-3-yl)sulfanyl]-N-{5-[4-(2-methylpropoxy)phenyl]-1,3,4-thiadiazol-2-yl}acetamide], the EC50 is 101 nM and the pEC50 in the inhibition of human aquaporin 9 is 7.

Regarding `CCc1ccc(-c2nnc(NC(=O)CSc3nnc(CC)n3CC)s2)cc1` [Example 14, 2-[(diethyl-4H-1,2,4-triazol-3-yl)sulfanyl]-N-[5-(4-ethylphenyl)-1,3,4-thiadiazol-2-yl]acetamide], the EC50 is 65 nM and the pEC50 in the inhibition of human aquaporin 9 was 7.2.

Regarding `CCCc1ccc(-c2nnc(NC(=O)CSc3nnc(CC)n3CC)s2)cc1` [Example 15, 2-[(diethyl-4H-1,2,4-triazol-3-yl)sulfanyl]-N-[5-(4-propylphenyl)-1,3,4-thiadiazol-2-yl]acetamide], the EC50 is 57 nM.

For `CCCCc1ccc(-c2nnc(NC(=O)CSc3nnc(CC)n3CC)s2)cc1` [Example 16, 2-[(diethyl-4H-1,2,4-triazol-3-yl)sulfanyl]-N-[5-(4-butylphenyl)-1,3,4-thiadiazol-2-yl]acetamide], the EC50 was 179 nM.

Consider `CCc1nnc(SCC(=O)Nc2nnc(-c3ccccc3)s2)n1CC` [Example 17, 2-[(diethyl-4H-1,2,4-triazol-3-yl)sulfanyl]-N-(5-phenyl-1,3,4-thiadiazol-2-yl)acetamide], for which the EC50 is 127 nM and the pEC50 in the inhibition of human aquaporin 9 was 6.9.

Regarding `CCc1nnc(SCC(=O)Nc2nnc(-c3ccc4c(c3)CCO4)s2)n1CC` [Example 18, 2-[(diethyl-4H-1,2,4-triazol-3-yl)sulfanyl]-N-[5-(2,3-dihydro-1-benzofuran-5-yl)-1,3,4-thiadiazol-2-yl]acetamide], the EC50 was 124 nM and the pEC50 in the inhibition of human aquaporin 9 is 6.9.

In the case of `CCc1nnc(SCC(=O)Nc2nnc(-c3ccc(CC(C)C)cc3)s2)n1CC` [Example 19, 2-[(diethyl-4H-1,2,4-triazol-3-yl)sulfanyl]-N-{5-[4-(2-methylpropyl)phenyl]-1,3,4-thiadiazol-2-yl}acetamide], the concentration giving a half-maximal response (EC50) was 94 nM.

In the case of `CCc1nnc(SCC(=O)Nc2nnc(-c3ccc(C(C)C)cc3)s2)n1CC` [Example 20, 2-[(diethyl-4H-1,2,4-triazol-3-yl)sulfanyl]-N-{5-[4-(propan-2-yl)phenyl]-1,3,4-thiadiazol-2-yl}acetamide], the EC50 is 79 nM and the pEC50 in the inhibition of human aquaporin 9 is 7.1.

With `CCc1nnc(SCC(=O)Nc2nnc(-c3ccc(O)cc3)s2)n1CC` [Example 21, 2-[(diethyl-4H-1,2,4-triazol-3-yl)sulfanyl]-N-[5-(4-hydroxyphenyl)-1,3,4-thiadiazol-2-yl]acetamide], the EC50 was 224 nM.

For the compound `CCn1c(CCOC)nnc1SCC(=O)Nc1nnc(-c2ccccc2)s1` [Example 22, 2-{[4-ethyl-5-(2-methoxyethyl)-4H-1,2,4-triazol-3-yl]sulfanyl}-N-(5-phenyl-1,3,4-thiadiazol-2-yl)acetamide], the 50% effective concentration (EC50) is 249 nM.

For the compound `CCn1c(CCOC)nnc1SCC(=O)Nc1nnc(-c2ccc(OC(C)C)cc2)s1` [Example 23, 2-{[4-ethyl-5-(2-methoxyethyl)-4H-1,2,4-triazol-3-yl]sulfanyl}-N-{5-[4-(propan-2-yloxy)phenyl]-1,3,4-thiadiazol-2-yl}acetamide], the EC50 was 39 nM and the pEC50 in the inhibition of human aquaporin 9 was 7.4.

Consider `CCCc1ccc(-c2nnc(NC(=O)CSc3nnc(CCOC)n3CC)s2)cc1` [Example 24, 2-{[4-ethyl-5-(2-methoxyethyl)-4H-1,2,4-triazol-3-yl]sulfanyl}-N-[5-(4-propylphenyl)-1,3,4-thiadiazol-2-yl]acetamide], for which the EC50 is 41 nM and the pEC50 in the inhibition of human aquaporin 9 was 7.4.

As for `CCOc1ccc(-c2nnc(NC(=O)CSc3nnc(CC)n3CC)s2)cc1` [Example 25, 2-[(diethyl-4H-1,2,4-triazol-3-yl)sulfanyl]-N-[5-(4-ethoxyphenyl)-1,3,4-thiadiazol-2-yl]acetamide], the EC50 was 42 nM.

As to `CCc1nnc(SCC(=O)Nc2nnc(-c3ccc(OCCF)cc3)s2)n1CC` [Example 26, 2-[(diethyl-4H-1,2,4-triazol-3-yl)sulfanyl]-N-{5-[4-(2-fluoroethoxy)phenyl]-1,3,4-thiadiazol-2-yl}acetamide], the EC50 was 43 nM.

In the case of `CCOc1ccc(-c2nnc(NC(=O)CSc3nnc(C(C)C)n3CC)s2)cc1` [Example 27, N-[5-(4-ethoxyphenyl)-1,3,4-thiadiazol-2-yl]-2-{[4-ethyl-5-(propan-2-yl)-4H-1,2,4-triazol-3-yl]sulfanyl}acetamide], the EC50 is 69 nM.

On to `CCn1c(SCC(=O)Nc2nnc(-c3ccc(OCCF)cc3)s2)nnc1C(C)C` [Example 28, 2-{[4-ethyl-5-(propan-2-yl)-4H-1,2,4-triazol-3-yl]sulfanyl}-N-{5-[4-(2-fluoroethoxy)phenyl]-1,3,4-thiadiazol-2-yl}acetamide], for which the EC50 was 44 nM.
